Data reported in paper PMC6002838 (The Journal of antibiotics, 2017).
Converted amounts (≈) assume the structure as drawn. One block for each molecule: values may come before it.

Tests used:
[1] = Cytotoxicity on HUVEC cells; type: cell-based; details: human, HUVEC cells (primary human umbilical cord endothelial cells)
[2] = Cytotoxicity on THP-1 cells; type: cell-based; details: human, THP-1 cells (KSHV-negative macrophage cell line)
[3] = Cytotoxicity on BC3 cells; type: cell-based; details: human
[4] = tested on: latent KSHV DNA in BC3 cells; assay: qPCR detection of latent KSHV DNA; type: cell-based, Kaposi Sarcoma Herpesvirus (KSHV)
[5] = biological target: MDM2-p53 complex (Homo sapiens, UniProt Q00987); assay: MDM2-p53 complex inhibition assay; type: binding; details: for inhibition at 100 µM: read-out: Inhibition of MDM2-p53 complex formation (pre-treat)
Sequence of MDM2-p53 complex (Q00987 whole entry, one chain of several): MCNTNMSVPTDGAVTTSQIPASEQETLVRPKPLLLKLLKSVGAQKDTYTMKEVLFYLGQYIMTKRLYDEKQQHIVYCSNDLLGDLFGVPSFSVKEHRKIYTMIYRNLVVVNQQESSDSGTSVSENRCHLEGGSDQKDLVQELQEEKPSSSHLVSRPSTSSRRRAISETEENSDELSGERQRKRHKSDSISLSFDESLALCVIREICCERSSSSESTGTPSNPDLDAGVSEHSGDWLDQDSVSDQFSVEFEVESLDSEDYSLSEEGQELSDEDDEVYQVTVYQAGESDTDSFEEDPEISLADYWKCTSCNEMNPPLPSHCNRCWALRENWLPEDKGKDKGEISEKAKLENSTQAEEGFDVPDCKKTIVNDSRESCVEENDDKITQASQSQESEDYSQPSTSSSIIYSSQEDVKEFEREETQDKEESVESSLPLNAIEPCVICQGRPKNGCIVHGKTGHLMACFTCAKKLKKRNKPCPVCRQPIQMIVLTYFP

[6] = tested on: KSHV LANA latency antigen; type: cell-based, Kaposi Sarcoma Herpesvirus (KSHV); details: 100 μM, 6 days, BC3 cells, flow cytofluorometry

Structure (SMILES): [H]/N=C(/N)NS(=O)(=O)c1ccc(N)cc1 [SG3, sulfaguanidine]
- CC50 at 6 days [1]: 500 ± 125 µg/mL (≈ 2330 µM)
- CC50 at 6 days [2]: 125 ± 31 µg/mL (≈ 583 µM)
- CC50 at 6 days [3]: 100 ± 25 µg/mL (≈ 467 µM)
- SI (CC50/EC50) [4]: 4.76
- inhibition at 100 µM [5]: ~48%

Structure (SMILES): Nc1ccc(S(N)(=O)=O)cc1 [SA4, sulfanilamide]
- LANA inhibition [6]: 78±6%
- Residual fluorescence (RF) [6]: 21%
- inhibition at 100 µM [5]: 56%

Structure (SMILES): Nc1ccc(S(=O)(=O)Nc2nccs2)cc1 [ST5, sulfathiazole]
- CC50 at 6 days [1]: 250 ± 62 µg/mL (≈ 979 µM)
- CC50 at 6 days [2]: 30 ± 15 µg/mL (≈ 117 µM)
- CC50 at 6 days [3]: 100 ± 25 µg/mL (≈ 392 µM)
- SI (CC50/EC50) [4]: 16.6
- Disruption of MDM2-p53 complex (post-treat) ([5]; 100 μM, compounds added after formation of the complex): about 48%
- inhibition at 100 µM [5]: ~70%

- inhibition at 100 µM [5]: 50%
Structure (SMILES): Cc1cc(NS(=O)(=O)c2ccc(N)cc2)no1 [BC6, sulfamethoxazole]

Structure (SMILES): CS(=O)(=O)Nc1ccc([N+](=O)[O-])cc1Oc1ccccc1 [Nimesulide, nimesulide]
- LANA inhibition [6]: 54±5%
- Residual fluorescence (RF) [6]: about 46%
